{"source": "patent US20240252463A1", "about": "“METHODS OF TREATING FIBROTIC PATHOLOGIES” (Mayo Foundation for Medical Education and Research, priority 2018, published 2024)", "key": {"[1]": {"system": "IMR-90 cells and IPF Patient-Derived Lung fibroblasts", "assay": "Proliferation and apoptosis-factor expression of lung fibroblasts", "type": "cell-based, human", "procedure": "IPF fibroblast and Normal lung fibroblast co-culture proliferation. Cell are pre-labelled with fluorescent dyes (red and green) and then co-cultured at a Ratio of 1:1 in 96 well plates. Cell counts are determined every 24 hours and plotted as a ratio of IPF/HLF cells. In the control wells the IPF cells outgrow and take over the well. N=2.\nProliferation of lung fibroblasts (IMR-90 cells and IPF Patient-Derived Lung fibroblasts) measured for 4 days in the presence of GPCR agonists ET-1 (100 nM) and LPA (10 μM) (32A, 32B) or growth factors TGFβ (2 ng/mL) and CTGF (100 ng/mL) (32C, 32D)+/−10M DHX. Cells were fixed and counted with DAPI at the end of each day. N=3 technical triplicates. RNA Expression of pro-apoptotic factor BIM (32E, 32F) and anti-apoptotic factor BCL2 (32G, 32H) was assessed following 24 treatment with DHX (10 μM). N=4."}, "[2]": {"system": "Collagen I and Fibronectin", "assay": "Immuno-ECM: TGFβ-stimulated accumulation of collagen I and fibronectin", "type": "cell-based, human", "conditions": "IPF patient-derived fibroblasts, TGFβ 48 hours then DHX 24 hours", "procedure": "Immuno-ECM: Adapting from previously published methods, IPF patient-derived fibroblasts were plated to confluence in clear-bottom 96-well plates. After cells attached, the medium was swapped for EMEM containing 0.1% FBS+2 ng/mL TGF-β. After 48 hours the indicated concentration of DHX or DMSO control was added to each well and incubated for 24 hours. WST-1 viability reagent was added to each well (Sigma-Aldrich) and measured on a Flexstation 3 (Molecular Devices) plate reader. Cells were then fixed in 3.7% formalin (Sigma-Aldrich), and permeabilized in 0.25% Triton X-100 (Sigma-Aldrich). Wells were washed with tris-buffered saline (TBS) and blocked with Li-Cor Odyssey Blocking Buffer for 60 minutes before overnight incubation in a polyclonal rabbit antibody for fibronectin (Sigma sc-9068) or collagen I (Novus NB600-408) diluted 1:200 in blocking buffer. Wells were washed with TBS-Tween before 45 minute incubation with IR-dye-conjugated secondary antibody (Li-Cor #926-32211) diluted 1:400. Plates were imaged via a Li-Cor OdysseyXL system with quantification performed via densitometry. Data are expressed as IR intensity relative to WST-1 signal absorbance in order to account for any potential compound toxicity."}, "NIH-3T3 cells": {"system": "NIH-3T3 cells", "assay": "Matrix Remodeling Measured by Atomic Force Microscopy (NIH-3T3 cell-derived matrix)", "type": "cell-based, mouse", "conditions": "TGFβ + ascorbic acid 72 hours, then 10 μM DHX additional 72 hours", "procedure": "Matrix Remodeling Measured by Atomic Force Microscopy: NIH-3T3 cells were plated to confluence onto gelatin coated (Cell Biologics) AFM compatible tissue culture dishes (Willco) in DMEM containing 10% FBS. After cells attached overnight media was replaced with DMEM containing 2% FBS, 2 ng/mL TGFβ, and 20 μg/mL ascorbic acid to promote matrix deposition. After 72 hours, measurements were made using a BioScope Catalyst AFM (Bruker, MA, USA). Microindentations were performed using a 2.5 μm radius sphere-tipped probe (Novascan, IA, USA) with a spring constant determined at ˜100 pN nm^−1 by thermal fluctuation method. For each dish, 3 different areas were analyzed. Force curves were acquired with MIRO 2.0 (NanoScope 9.1; Bruker) at an indentation rate of […] and a ramp size of […] on different points. 75 force curves were performed per cell dish (25 per area). The Young's modulus E was determined by the fitting of force curve by Hertz model using NanoScope Analysis software (Bruker) and considering Poisson's ratio of 0.5. […]\nThe results above were consistent with DHX not only attenuating key aspects of fibroblast pro-fibrotic activation, but potentially shifting their phenotype toward one that promotes fibrosis clearance and resolution. […] After 72 hours the stiffness of the cells and their cell-derived matrix were measured using atomic force microscopy (AFM). […]"}, "αSMA+ stress fibers": {"system": "αSMA+ stress fibers", "assay": "TGFβ-induced αSMA+ stress fiber formation", "type": "cell-based, human", "conditions": "IMR-90, TGFβ 72 hours, DHX 10 μM from 48-72 hours", "procedure": "ImmunofluorescenceMicroscopy: Cells were plated into 96 well plates (Corning 3603) in their specific growth media and allowed to attach (8 hours). Media was then exchanged for the indicated conditions for each experiment. Cells were fixed in 3.7% formalin (Sigma-Aldrich), permeabilized in 0.25% Triton X-100 (Sigma-Aldrich) and then blocked with 1% BSA for 1 h. Cells or tissue sections were incubated overnight with mouse monoclonal antibody against αSMA (Sigma-Aldrich F3777), and/or a rabbit monoclonal antibody against YAP/TAZ (Cell Signaling D24E4) diluted 1:200 in PBS with 1% BSA."}}, "data": [{"molecule": "Oc1cc2c(cc1O)[C@H]1c3ccccc3CN[C@@H]1CC2", "note": "(racemic) [Dihydrexidine, dihydrexidine]", "values": [{"measurement": "RNA expression of pro-apoptotic BIM and anti-apoptotic BCL2", "setting": "[1]; 24 treatment with DHX (10 μM)", "result": "primes lung fibroblasts for apoptosis"}, {"measurement": "proliferation of lung fibroblasts", "setting": "[1]; 4 days, with ET-1, LPA, TGFβ or CTGF +/−10M DHX", "result": "blocks proliferation"}, {"measurement": "TGFβ-stimulated accumulation of collagen I and fibronectin", "setting": "[2]", "result": "dose-dependently reversed"}, {"measurement": "stiffness of cells and cell-derived matrix (AFM)", "setting": "NIH-3T3 cells", "result": "significantly reduced the observed stiffness"}, {"measurement": "myofibroblastic transition (αSMA+ stress fibers)", "setting": "αSMA+ stress fibers", "result": "reversed this transition"}]}]}
